According to EP2439195B1, “NAPHTHALENE CARBOXAMIDE DERIVATIVES AS INHIBITORS OF PROTEIN KINASE AND HISTONE DEACETYLASE, PREPARATION METHODS AND USES THEREOF” (Shenzhen Chipscreen Biosciences, Ltd., priority 2009, dated 2010):
Where two headings read alike, the source gives them in different places.

How the values were obtained:
human PDGFRβ = molecular target: T1, human PDGFRβ (Homo sapiens, UniProt P09619); test: PDGF dependent cell proliferation (MTS); type: cell-based
T1 construct: expressed in transfected cells
T1 sequence (P09619 33-1106): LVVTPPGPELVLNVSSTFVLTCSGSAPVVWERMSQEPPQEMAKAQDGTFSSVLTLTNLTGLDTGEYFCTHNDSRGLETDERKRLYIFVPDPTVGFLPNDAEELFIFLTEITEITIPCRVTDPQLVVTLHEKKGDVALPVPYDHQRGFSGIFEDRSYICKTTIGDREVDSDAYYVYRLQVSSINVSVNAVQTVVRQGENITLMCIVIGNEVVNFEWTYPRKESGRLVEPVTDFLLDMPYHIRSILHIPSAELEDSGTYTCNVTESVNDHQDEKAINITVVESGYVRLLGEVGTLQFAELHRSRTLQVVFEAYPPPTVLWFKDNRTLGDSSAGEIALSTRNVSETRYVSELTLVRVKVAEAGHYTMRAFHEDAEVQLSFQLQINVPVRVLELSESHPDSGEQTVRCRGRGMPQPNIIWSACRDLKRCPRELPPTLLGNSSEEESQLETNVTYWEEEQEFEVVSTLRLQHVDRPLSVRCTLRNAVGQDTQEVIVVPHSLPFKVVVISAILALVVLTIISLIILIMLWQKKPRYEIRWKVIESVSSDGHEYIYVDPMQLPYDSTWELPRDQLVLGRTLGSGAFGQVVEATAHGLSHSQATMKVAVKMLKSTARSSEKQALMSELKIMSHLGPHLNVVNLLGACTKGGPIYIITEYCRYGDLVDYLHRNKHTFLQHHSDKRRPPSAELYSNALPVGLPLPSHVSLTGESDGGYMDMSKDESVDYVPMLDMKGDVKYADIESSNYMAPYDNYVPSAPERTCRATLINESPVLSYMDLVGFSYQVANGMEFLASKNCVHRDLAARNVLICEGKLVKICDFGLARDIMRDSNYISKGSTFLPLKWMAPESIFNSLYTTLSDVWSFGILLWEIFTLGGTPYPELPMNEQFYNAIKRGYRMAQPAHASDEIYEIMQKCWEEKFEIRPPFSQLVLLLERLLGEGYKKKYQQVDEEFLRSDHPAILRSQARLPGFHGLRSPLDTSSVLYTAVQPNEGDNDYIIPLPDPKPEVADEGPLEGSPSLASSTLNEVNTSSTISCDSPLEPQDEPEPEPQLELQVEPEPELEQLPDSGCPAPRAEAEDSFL
Experimental: NIH-3T3 mouse fibroblasts cell line engineered to stably express human PDGFRβ was constructed and used to evaluate PDGF dependent cell proliferation. PDGFRβ NIH-3T3 cells were plated into 96-well plates at 5,000 per well and incubated overnight with serum-free medium after 24 hours. Compounds to be tested and PDGF BB (50ng/ml) were added and incubated for 72 hours in serum-free medium. The effects on proliferation were determined by MTS method (Promega) according to the instruction. Incubation was performed for 2 hours at 37°C in CO2 incubator, and absorbance at 490nm was measured using an ELISA plate reader.

HUVEC cells = test: VEGF dependent cell proliferation (MTS); type: cell-based; conditions: Homo sapiens, VEGF 165 (50ng/ml), 72 hours, serum-free medium, read-out: Gl50 nM (VEGF ligand-dependent cell proliferation)
Experimental: HUVEC cells were plated into 96-well plates at 6,000 per well and after 24 hours incubated with serum-free medium for 2 hours. Compounds to be tested and VEGF 165 (50ng/ml) were added and incubated for 72 hours in serum-free medium. The effects on cell proliferation were determined by MTS method (Promega) according to the instruction. Incubation was performed for 2 hours at 37°C in CO2 incubator, and absorbance at 490nm was determined using an ELISA plate reader.

total HDAC enzyme = test: In vitro total HDAC enzyme activity (HDAC Fluorimetric Assay/Drug Discovery Kit, HeLa cell nuclear extract); type: biochemical
Experimental: The in vitro total HDAC enzyme activity was determined by HDAC Fluorimetric Assay/Drug Discovery Kit (BIOMOL) according to manufacture's instruction. The principle of the experiment is as follows: under the action of histone deacetylase (in the experiment, HeLa cell nuclear extract, which was rich in a variety of subtypes of HDAC, was used), an acetyl group is removed from a special substrate Fluor de Lys, thus the free amino is exposed. Upon Developer is added, the substrate will produce fluorescence. For the fluorescence, excitation wavelength is 360nm, and emission wavelength is 460nm. More fully the substrate deacetylated, more higher the fluorescence induced. In the absence of inhibitors, the fluorescence value is taken as the control; when inhibitor is existed, fluorescence value induced will be reduced, while in the case no enzyme is existed (corresponding to the completely inhibition of enzyme activity) the fluorescence value is blank. Generally, after suppression the fluorescence values will be between the control and blank. When analysis is made, blank will be used as 0, and the control will be used as 1. Smaller value means higher inhibitory activity. 1. Add Assay buffer, diluted trichostatin A and test inhibitor to appropriate wells of the microtiter plate. Following table lists the amounts used for each regent of various assay types.
2. Add diluted HeLa nucleoprotein extract to all wells except those that are marked as "blank". 3. Allow diluted Fluor de Lys™ Substrate and the samples in the microtiter plate to equilibrate to 25°C. 4. Initiate HDAC reactions by adding diluted substrate (25 µl) to each well and mixing thoroughly. 5. Allow reactions to proceed for 30 minutes and then stop them by addition of Fluor de Lys™ Developer (50 µl). Incubate plate at room temperature (25°C) for 10-15 min. 6. Read fluorescence of samples on a microtiter-plate reading fluorimeter at a excitation wavelength of 369 nm and a emitted wavelength of 451 nm.

Class I HDAC = test: HDAC subtype selectivity reporter gene assay (P21 reporter, HeLa cells); type: cell-based; conditions: Homo sapiens, read-out: Class I HDAC (P21 reporter assay) Fold Induction at 10µM
Experimental: Different HDAC subtypes can bind with different transcriptional factors and involve in expression regulation of various genes. Suitable regulation elements for transcriptional factors are selected to construct reporter genes, which can be used to evaluate the selective inhibition of inhibors on HDAC subtypes. Briefly, HeLa cells were seeded in 96-well plates the day before transfection to give a confluence of 50-80% when transfection. Cells were transfected with one of reporter gene plasmid containing a p21-promoter sequence or response element upstream of a luciferase gene construct using FuGene6 transfection reagent according to the manufacturer's instruction (Roche). For normalizing the transfection efficiency, a GFP expression plasmid was cotransfected. After 24 hours compounds or the vehicle control (DMSO) were added. 24 hours later the cells were harvested and lysed, and the amount of the luciferase was evaluated using luciferase assay kits (Promega) according to the manufacturer's instructions.

A-498 = test: Tumor cell proliferation (MTS), A-498; type: cell-based; conditions: Homo sapiens, A498; A-498, 72 hours; read-out: Gl50 µM in A-498
Experimental: (§1) Tumor cells were trypsinized and plated into 96-well plates at 3,000 per well and incubated in complete medium with 10% FBS for 24 hours. Compounds to be tested and vehicle control were added, and the final concentration of compound is in the range of 100 nmol/L to 100 µmol/L. The compounds were incubated for 72 hours in complete medium. The MTS reagent (Promega) was added according to the instruction, incubated for 2 hours at 37°C in CO2 incubator. Then absorbance at 490nm is read using an ELISA plate reader.

A549 = test: Tumor cell proliferation (MTS), A549; type: cell-based; conditions: Homo sapiens; A549, 72 hours; read-out: Gl50 µM in A549
Experimental: as §1

Bel-7402 = test: Tumor cell proliferation (MTS), Bel-7402; type: cell-based; conditions: Homo sapiens; Bel-7402, 72 hours; read-out: Gl50 µM in Bel-7402
Experimental: as §1

HCT-8 = test: Tumor cell proliferation (MTS), HCT-8; type: cell-based; conditions: Homo sapiens; HCT-8, 72 hours; read-out: Gl50 µM in HCT-8
Experimental: as §1

MCF-7 = test: Tumor cell proliferation (MTS), MCF-7; type: cell-based; conditions: Homo sapiens, MCF7; MCF-7, 72 hours; read-out: Gl50 µM in MCF-7
Experimental: as §1

human HCT-8 colon cancer = test: Nude mice tumor transplanted from human HCT-8 colon cancer (Example 55); type: in vivo; conditions: for TGI (%): tumor growth inhibition
Experimental: Female nu/nu mice of 18∼20g were fed by normal diet for 3 days. Then the cultured HCT-8 human colon cancer cells were implanted into the armpit of 50 mice. […] One group was treated with vehicle. One group was treated with Sutent, the positive control drug. Two groups were treated with compound 33 at different concentrations. The other two groups were treated with compound 37 at different concentrations. Compound 33 was administered twice a day with an interval of 6 hours. For other groups, administration was performed once a day. Each group was dosed orally for 20 days. […] The tumor growth inhibition of each group was calculated using the following formula: {[(the average tumor weight of control group)-(the average tumor weight of test group)]/(the average tumor weight of control group)} × 100%. [formula] The experimental results are shown in Table 9 and Figure 5.

[1] = tested on: human SSMC7721 liver cancer; test: Nude mice tumor transplanted from human SSMC7721 liver cancer (Example 56); type: in vivo; conditions: for TGI (%): tumor growth inhibition
Experimental: Female nu/nu mice of 18∼20g were fed by normal diet for 3 days. Then the cultured SSMC7721 human liver cancer cells were implanted into the armpit of 50 mice. […] Each group had 8 mice. One group was treated with vehicle. One group was treated with Sutent, the positive control drug. Two groups were treated with compound 33 at different concentrations. The other two groups were treated with compound 37 at different concentrations. Each group was dosed orally once a day for 30 days. […] The tumor growth inhibition of each group was calculated using the following formula: {[(the average tumor weight of control group)-(the average tumor weight of test group)]/(the average tumor weight of control group)} × 100%. [formula] The experimental results are shown in Table 10 and Figure 6. Table10

[2] = PDGFRβ NIH-3T3 cells, PDGF BB (50ng/ml), 72 hours, serum-free medium; read-out: Gl50 nM (PDGF ligand-dependent cell proliferation)
[3] = 30 mg/kg orally once a day for 20 days
[4] = 60 mg/kg orally once a day for 20 days
[5] = 30 mg/kg orally once a day for 30 days
[6] = 60 mg/kg orally once a day for 30 days

Compound	IC50 (human PDGFRβ; [2]) [µM]	IC50 (HUVEC cells) [µM]	% inhibition of total HDAC enzyme activity at 30µM (total HDAC enzyme) [%]	fold induction at 10 µM (Class I HDAC; 10µM, HeLa cells, 24 hours)	IC50 (A-498) [µM]	IC50 (A549) [µM]	IC50 (Bel-7402) [µM]	IC50 (HCT-8) [µM]	IC50 (MCF-7) [µM]	also measured
COc1ccc2c(Oc3ccc4c(C(=O)Nc5ccc(F)cc5N)cccc4c3)ccnc2c1 [Compound 32, N-(2-amino-4-fluorophenyl)-6-(7-methoxyquinolin-4-yloxy)-1-naphthamide]	0.02	0.002	21.7	1.8	7.5	8.3	17.3	6.6	15.9	
COc1cc2nccc(Oc3ccc4c(C(=O)Nc5ccccc5N)cccc4c3)c2cc1OC [Compound 35, N-(2-aminophenyl)-6-(6,7-dimethoxyquinolin-4-yloxy)-1-naphthamide]	0.005	0.001	19.3	1.2	9.1	7.7	19.5	8.9	13.3	
COc1cc2nccc(Oc3ccc4c(C(=O)Nc5ccc(F)cc5N)cccc4c3)c2cc1OC [Compound 36, N-(2-amino-4-fluorophenyl)-6-(6,7-dimethoxyquinolin-4-yloxy)-1-naphthamide]	0.003	0.002	14.4	1.2	4.2	7.4	12.1	4.1	8.9	
COc1cc2nccc(Oc3ccc4c(C(=O)NCc5ccc(C(=O)Nc6ccccc6N)cc5)cccc4c3)c2cc1OC [Compound 37, N-(4-((2-aminophenyl)carbamoyl)benzyl)-6-(6,7-dimethoxyquinolin-4-yloxy)-1-naphthamide]	0.159	0.004	35.9	3	30	30	30	30	30	Tumor weight (human HCT-8 colon cancer; [3]): 3.89 ± 1.19 g; Body weight (g) end (human HCT-8 colon cancer; [3]): 23.6 ± 2.2 g; Body weight (g) start (human HCT-8 colon cancer; [3]): 20.6 ± 0.8 g; TGI (%) (human HCT-8 colon cancer; [3]): 36.5%; Tumor weight (human HCT-8 colon cancer; [4]): 3.36 ± 0.80 g; Body weight (g) end (human HCT-8 colon cancer; [4]): 24.1 ± 2.1 g; Body weight (g) start (human HCT-8 colon cancer; [4]): 20.8 ± 0.8 g; TGI (%) (human HCT-8 colon cancer; [4]): 45.1%; Tumor weight [1, 5]: 1.45 ± 0.58 g; Body weight (g) end [1, 5]: 25.3 ± 0.9 g; Body weight (g) start [1, 5]: 20.7 ± 1.2 g; TGI (%) [1, 5]: 35.6%; Tumor weight [1, 6]: 1.28 ± 0.51 g; Body weight (g) end [1, 6]: 24.3 ± 1.1 g; Body weight (g) start [1, 6]: 21.4 ± 0.6 g; TGI (%) [1, 6]: 43.3%
COc1cc2nccc(Oc3ccc4c(C(=O)NCc5ccc(C(=O)Nc6ccccc6N)cn5)cccc4c3)c2cc1OC [Compound 38]		0.025	39.3		6.9	30	30	8	9.4	IC50 (human PDGFRβ; read-out: Gl50 nM (PDGF ligand-dependent cell proliferation); PDGFRβ NIH-3T3 cells, PDGF BB (50ng/ml), 72 hours, serum-free medium): 0.074 µM; fold induction at 10 µM (Class I HDAC; HeLa, 24 h): 3.1
